Reference: patent US8318726B2, “Benzylidineanthracenone linked pyrrolobenzodiazepine hybrids useful as anticancer agents and process for the preparation thereof” (Council of Scientific & Industrial Research, priority 2010, dated 2012)
Read-outs that look alike come from different tables or passages of the source.

Tests used:
[1] = test system: breast cancer cell lines (MCF7); test: In vitro cytotoxicity, SRB assay, breast cancer MCF7; type: cell-based, human
Description: (§1) The C8-linked benzylidineanthracenone-PBD hybrids have been tested against eight human tumor cell lines derived from seven cancer types (breast, ovarian, colon, prostate, cervix, lung and oral cancer). For each compound, dose response curves for individual cell lines have been measured at a minimum of five concentrations at 10 fold dilutions. A protocol of 48 hrs continuous drug exposure has been used, and a sulforhodamine B (SRB) protein assay was used to estimate cell viability or growth. The results are expressed as percent of cell growth determined relative to that of untreated control cells. The GI50 values are the concentration for 50% cell growth inhibition (GI50) compared with the control has been calculated.

[2] = test system: ovarian cancer cell lines (A2780); test: In vitro cytotoxicity, SRB assay, ovarian cancer A2780; type: cell-based, human
Description: as §1

[3] = test system: colon cancer cell lines (Colo205); test: In vitro cytotoxicity, SRB assay, colon cancer Colo205; type: cell-based, human
Description: as §1

[4] = test system: prostate cancer cell lines (PC3); test: In vitro cytotoxicity, SRB assay, prostate cancer PC-3; type: cell-based, human
Description: as §1

[5] = test system: lung cancer cell lines (A549); test: In vitro cytotoxicity, SRB assay, lung cancer A-549; type: cell-based, human
Description: as §1

[6] = test system: lung cancer cell lines (HoP62); test: In vitro cytotoxicity, SRB assay, lung cancer Hop62; type: cell-based, human
Description: as §1

[7] = test system: oral cancer cell lines (KB); test: In vitro cytotoxicity, SRB assay, oral cancer KB; type: cell-based, human
Description: as §1

[8] = test system: duplex-form calf thymus DNA (CT-DNA); test: Thermal denaturation studies with calf thymus DNA; type: binding; conditions: [PBD]:[DNA] molar ratio 1:5, CT-DNA 100 μM, ligand 20 μM, pH 7.00
Protocol: Compounds were subjected to thermal denaturation studies with duplex-form calf thymus DNA (CT-DNA) using an adaptation of a reported procedure. Working solutions in aqueous buffer (10 mM NaH2PO41Na2HPO4, 1 mM Na2EDTA, pH 7.00±0.01) containing CT-DNA (100 μm in phosphate) and the PBD (20 μm) were prepared by addition of concentrated PBD solutions in DMSO to obtain a fixed [PBD]/[DNA] molar ratio of 1:5. The DNA-PBD solutions were incubated at 37° C. for 0, 18, and 36 h prior to analysis. Samples were monitored at 260 nm using a Beckman DU-7400 spectrophotometer fitted with high performance temperature controller, and heating was applied at 1° C. min^−1 in the 40-90° C. range. DNA helix→coil transition temperatures (Tm) were obtained from the maxima in the d(A260)/dT derivative plots. Results are given as the mean±standard deviation from three determinations and are corrected for the effects of DMSO co-solvent using a linear correction term. Drug-induced alterations in DNA melting behaviour are given by: ΔTm=Tm(DNA+PBD)−Tm (DNA alone), where the Tm value for the PBD-free CT-DNA is 69.0±0.01.
For a 1:5 molar ratio of [PBD]/[DNA], where CT-DNA concentration=100 μM and ligand concentration=20 μM in aqueous sodium phosphate buffer [10 mM sodium phosphate+1 mM EDTA, pH 7.00±0.01]. The ΔTm for PBD hybrids 5b, 5c, 5d, 5h, 5m and 5r at a [PBD]:[DNA] molar ratio of 1:5 increased to a value of 7.5° C., 9.3° C., 8.9° C., 8.0° C., 7.1° C., and 8.4° C. after 18 h incubation respectively.

[9] = test system: cervix cancer cell lines (SiHa); test: In vitro cytotoxicity, SRB assay, cervix cancer SiHa; type: cell-based, human
Description: as §1

[10] = Homo sapiens, Breast MCF7, 48 hrs continuous drug exposure, SRB, read-out: GI50
[11] = Homo sapiens, breast cancer cell lines (MCF7), exposure period of at least 48 hrs, read-out: GI50 (range for the group)
[12] = Homo sapiens, Ovarian A2780, 48 hrs continuous drug exposure, SRB, read-out: GI50
[13] = Homo sapiens, ovarian cancer cell lines (A2780), exposure period of at least 48 hrs, read-out: GI50 (range for the group)
[14] = Homo sapiens, COLO 205, Colon Colo205, 48 hrs continuous drug exposure, SRB, read-out: GI50
[15] = Homo sapiens, COLO 205, colon cancer cell lines (Colo205), exposure period of at least 48 hrs, read-out: GI50 (range for the group)
[16] = Homo sapiens, Prostate PC-3, 48 hrs continuous drug exposure, SRB, read-out: GI50
[17] = Homo sapiens, prostate cancer cell lines (PC3), exposure period of at least 48 hrs, read-out: GI50 (range for the group)
[18] = Homo sapiens, A549, Lung A-549, 48 hrs continuous drug exposure, SRB, read-out: GI50
[19] = Homo sapiens, lung cancer cell lines (A549), exposure period of at least 48 hrs, read-out: GI50 (range for the group)
[20] = Homo sapiens, HOP-62, Lung Hop62, 48 hrs continuous drug exposure, SRB, read-out: GI50
[21] = Homo sapiens, HOP-62, lung cancer cell lines (HoP62), exposure period of at least 48 hrs, read-out: GI50 (range for the group)
[22] = Homo sapiens, Oral KB, 48 hrs continuous drug exposure, SRB, read-out: GI50
[23] = Homo sapiens, oral cancer cell lines (KB), exposure period of at least 48 hrs, read-out: GI50 (range for the group)
[24] = Homo sapiens, Cervix SiHa, 48 hrs continuous drug exposure, SRB, read-out: GI50
[25] = Homo sapiens, cervix cancer cell lines (SiHa), exposure period of at least 48 hrs, read-out: GI50 (range for the group)

Row | Compound | GI50 [1, 10] | GI50 [1, 11] | GI50 [2, 12] | GI50 [2, 13] | GI50 [3, 14] | GI50 [3, 15] | GI50 [4, 16] | GI50 [4, 17] | GI50 [5, 18] | GI50 [5, 19] | GI50 [6, 20] | GI50 [6, 21] | GI50 [7, 22] | GI50 [7, 23] | ΔTm, drug-induced shift in DNA melting temperature ([8]; 0 h incubation at 37° C.) | ΔTm, drug-induced shift in DNA melting temperature ([8]; 18 h incubation at 37° C.) | GI50 [9, 24] | GI50 [9, 25] | further results
1 | COc1cc(C=C2c3ccccc3C(=O)c3ccccc32)ccc1OCCCCOc1cc2c(cc1OC)C(=O)N1CCC[C@H]1C=N2 [5c, 7-methoxy-8-(4-{2-methoxy-4-[(10-oxo-9,10-dihydro-9-anthracenyliden)methyl]phenoxy}butoxy)-(11aS)-1,2,3,11a-5H-pyrrolo[2,1-c][1,4]benzodiazepin-5-one] | 90 nM | 90 to 180 nM | 150 nM | 148 to 168 nM | 120 nM | 110 to 140 nM | 180 nM | 150 to 2200 nM | 1800 nM | 155 to 1940 nM | 180 nM | 170 to 260 nM | 200 nM | 180 to 2500 nM | 7.7 °C | 9.3 °C | – | – | –
2 | COc1ccc(C=C2c3ccccc3C(=O)c3ccccc32)cc1OCCCCOc1cc2c(cc1OC)C(=O)N1CCC[C@H]1C=N2 [5r, 7-methoxy-8-(4-{2-methoxy-5-[(10-oxo-9,10-dihydro-9-anthracenyliden)methyl]phenoxy}butoxy)-(11aS)-1,2,3,11a-5H-pyrrolo[2,1-c][1,4]benzodiazepin-5-one] | 180 nM | 90 to 180 nM | 166 nM | 148 to 168 nM | 140 nM | 110 to 140 nM | 2100 nM | 150 to 2200 nM | 1900 nM | 155 to 1940 nM | 260 nM | 170 to 260 nM | 2500 nM | 180 to 2500 nM | 6.3 °C | 8.4 °C | 31000 nM | 2200 to 31000 nM | –
3 | COc1cc2c(cc1OCCCCOc1cccc(C=C3c4ccccc4C(=O)c4ccccc43)c1)N=C[C@@H]1CCCN1C2=O [5m, 7-methoxy-8-(4-{3-[(10-oxo-9,10-dihydro-9-anthracenyliden)methyl]phenoxy}butoxy)-(11aS)-1,2,3,11a-5H-pyrrolo[2,1-c][1,4]benzodiazepin-5-one] | 170 nM | 90 to 180 nM | 160 nM | 148 to 168 nM | 140 nM | 110 to 140 nM | 180 nM | 150 to 2200 nM | 1820 nM | 155 to 1940 nM | 230 nM | 170 to 260 nM | 2400 nM | 180 to 2500 nM | 6.5 °C | 7.1 °C | 2200 nM | 2200 to 31000 nM | –
4 | COc1cc2c(cc1OCCCCOc1ccc(C=C3c4ccccc4C(=O)c4ccccc43)cc1)N=C[C@@H]1CCCN1C2=O [5h, 7-methoxy-8-(4-{4-[(10-oxo-9,10-dihydro-9-anthracenyliden)methyl]phenoxy}butoxy)-(11aS)-1,2,3,11a-5H-pyrrolo[2,1-c][1,4]benzodiazepin-5-one] | 160 nM | 90 to 180 nM | 168 nM | 148 to 168 nM | 110 nM | 110 to 140 nM | 2200 nM | 150 to 2200 nM | 150 nM | 155 to 1940 nM | 200 nM | 170 to 260 nM | 2400 nM | 180 to 2500 nM | 6.6 °C | 8.0 °C | 2500 nM | 2200 to 31000 nM | –
5 | COc1cc2c(cc1O)N=CC1CCCN1C2=O (centres unmarked) [DC-81, reference compound] | – | – | – | – | – | – | – | – | – | – | – | – | – | – | 0.3 °C | 0.7 °C | – | – | GI50 ([1]; Breast MCF7, 48 hrs continuous drug exposure, SRB, read-out: GI50): 2190 nM; GI50 ([2]; Ovarian A2780, 48 hrs continuous drug exposure, SRB, read-out: GI50): 150 nM; GI50 ([3]; Colon Colo205, 48 hrs continuous drug exposure, SRB, read-out: GI50): 120 nM; GI50 ([4]; Prostate PC-3, 48 hrs continuous drug exposure, SRB, read-out: GI50): 200 nM; GI50 ([9]; Cervix SiHa, 48 hrs continuous drug exposure, SRB, read-out: GI50): 170 nM; GI50 ([5]; Lung A-549, 48 hrs continuous drug exposure, SRB, read-out: GI50): 380 nM; GI50 ([6]; Lung Hop62, 48 hrs continuous drug exposure, SRB, read-out: GI50): 150 nM; GI50 ([7]; Oral KB, 48 hrs continuous drug exposure, SRB, read-out: GI50): 200 nM
6 | COc1cc(C=C2c3ccccc3C(=O)c3ccccc32)ccc1OCCCCCOc1cc2c(cc1OC)C(=O)N1CCC[C@H]1C=N2 [5d, 7-methoxy-8-(5-{2-methoxy-4-[(10-oxo-9,10-dihydro-9-anthracenyliden)methyl]phenoxy}pentoxy)-(11aS)-1,2,3,11a-5H-pyrrolo[2,1-c][1,4]benzodiazepin-5-one] | 150 nM | 90 to 180 nM | 150 nM | 148 to 168 nM | – | – | 150 nM | 150 to 2200 nM | 1940 nM | 155 to 1940 nM | 170 nM | 170 to 260 nM | 180 nM | 180 to 2500 nM | 7.4 °C | 8.9 °C | 2200 nM | 2200 to 31000 nM | –
7 | COc1cc(C=C2c3ccccc3C(=O)c3ccccc32)ccc1O [2a, 4-hydroxy-3-methoxybenzylidineanthracenone, reference compound] | – | – | – | – | – | – | – | – | – | – | – | – | – | – | 0.4 °C | 0.8 °C | – | – | –
